Results published in patent publication US9988379B2, “GPR40 receptor agonist, methods of preparing the same, and pharmaceutical compositions containing the same as an active agent” (LG CHEM, LTD., priority 2012, dated 2018).

Biological target: T1, human GPR40 (Homo sapiens, UniProt O14842)
T1 construct: expressed in transfected cells; host or cells: CHO-K1
Assay: Induction of Ca2+ (calcium flux assay) using human GPR40 expression cell line
Format: cell-based
Conditions: read-out: EC0.5
Summary of the method: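 CHO-K1 cells stably transfected with human GPR40, plated 24 h, loaded 1 h at 37° C with Calcium 5 dye in HBSS/HEPES pH 7.4. Intracellular calcium change after compound addition read on FlexStation; concentration–response of relative activity used to derive EC0.5.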

T1 sequence (O14842 whole entry): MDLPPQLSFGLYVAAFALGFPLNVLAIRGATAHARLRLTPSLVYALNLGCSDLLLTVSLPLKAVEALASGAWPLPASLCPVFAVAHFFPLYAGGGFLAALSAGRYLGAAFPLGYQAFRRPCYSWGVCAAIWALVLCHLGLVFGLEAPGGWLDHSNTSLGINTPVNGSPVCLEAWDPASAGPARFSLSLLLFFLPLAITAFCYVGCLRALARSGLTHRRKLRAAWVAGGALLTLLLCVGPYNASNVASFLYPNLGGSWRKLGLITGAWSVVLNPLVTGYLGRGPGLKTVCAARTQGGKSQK

Row | Compound | EC50
1 | CC(C)n1cc2ccc(COc3ccc([C@H](CC(=O)O)c4ccon4)cc3)cc2n1 [Example 99, (S)-3-[4-(2-isopropyl-2H-indazol-6-ylmethoxy)-phenyl]-3-isoxazol-3-yl-propanoic acid] | 1300 nM
2 | O=C(O)CCc1ccc(NCc2ccc3c(Cl)cn(Cc4ccccc4)c3c2)cc1 [Example 5, 3-{4-[(1-benzyl-3-chloro-1H-indol-6-ylmethyl)-amino]-phenyl}-propanoic acid] | 30 nM
3 | O=C(O)CC1COc2cc(OCc3ccc4cn(Cc5ccccc5)nc4c3)ccc21 (stereo not shown) [Example 113, [6-(2-benzyl-2H-indazol-6-ylmethoxy)-2,3-dihydro-benzofuran-3-yl]-acetic acid] | 9100 nM
4 | CC#C[C@@H](CC(=O)O)c1ccc(OCc2ccc3cn(Cc4cnc(C)cn4)nc3c2)cc1 [Example 74, (S)-3-{4-[2-(5-methyl-pyrazin-2-ylmethyl)-2H-indazol-6-ylmethoxy]-phenyl}-hex-4-ynoic acid] | ≥ 500 nM
5 | CC#C[C@@H](CC(=O)O)c1ccc(OCc2ccc3c(cnn3CCS(C)(=O)=O)c2)cc1 [Example 174, (S)-3-{4-[1-(2-methanesulfonyl-ethyl)-1H-indazol-5-ylmethoxy]-phenyl}-hex-4-ynoic acid] | ≥ 500 nM
6 | CC#C[C@@H](CC(=O)O)c1ccc(OCc2ccc3cnn(CC(C)C)c3c2)cc1 [Example 114, (S)-3-[4-(1-isobutyl-1H-indazol-6-ylmethoxy)-phenyl]-hex-4-ynoic acid] | 1 to 50 nM
7 | CC#C[C@@H](CC(=O)O)c1ccc(OCc2ccc3cnn(Cc4ccc(F)cc4)c3c2)cc1 [Example 66, (S)-3-{4-[1-(4-fluoro-benzyl)-1H-indazol-6-ylmethoxy]-phenyl}-hex-4-ynoic acid] | 10 nM
8 | CC#C[C@@H](CC(=O)O)c1ccc(OCc2cc3c(cnn3CC(C)C)cc2F)cc1 [Example 150, (S)-3-[4-(5-fluoro-1-isobutyl-1H-indazol-6-ylmethoxy)-phenyl]-hex-4-ynoic acid] | 3 nM
9 | CC#C[C@@H](CC(=O)O)c1ccc(OCc2ccc3c(Cn4cccn4)nn(C(C)C)c3c2)cc1 [Example 202, (S)-3-[4-(1-isopropyl-3-pyrazol-1-ylmethyl-1H-indazol-6-ylmethoxy)-phenyl]-hex-4-ynoic acid] | 8 nM
10 | O=C(O)CCc1ccc(NCc2ccc3ccn(-c4ccsc4)c3c2)cc1 [Example 3, 3-{4-[(1-thiophen-3-yl-1H-indol-6-ylmethyl)-amino]-phenyl}-propanoic acid] | 10 nM
11 | CC#C[C@@H](CC(=O)O)c1ccc(OCc2cccc3c2cnn3CCCC)cc1 [Example 197, (S)-3-[4-(1-butyl-1H-indazol-4-ylmethoxy)-phenyl]-hex-4-ynoic acid] | 5 nM
12 | O=C(O)CC1COc2cc(OCc3ccc4c(Cl)cn(Cc5ccccc5)c4c3)ccc21 (stereo not shown) [Example 12, [6-(1-benzyl-3-chloro-1H-indol-6-ylmethoxy)-2,3-dihydro-benzofuran-3-yl]-acetic acid] | 160 nM
13 | CC#C[C@@H](CC(=O)O)c1ccc(OCc2ccc3ccn(Cc4ccncn4)c3c2C)cc1 [Example 61, (S)-3-[4-(7-methyl-1-pyrimidin-4-ylmethyl-1H-indol-6-ylmethoxy)-phenyl]-hex-4-ynoic acid] | 1 to 50 nM
14 | CC#C[C@@H](CC(=O)O)c1ccc(OCc2ccc3cnn(CCC)c3c2C)cc1 [Example 221, (S)-3-[4-(7-methyl-1-propyl-1H-indazol-6-ylmethoxy)-phenyl]-hex-4-ynoic acid] | 5 nM
15 | O=C(O)CCc1ccc(OCc2ccc3cnn(CC4CCCC4)c3c2)cc1F [Example 107, 3-[4-(1-cyclopentylmethyl-1H-indazol-6-ylmethoxy)-2-fluoro-phenyl]-propanoic acid] | 200 nM
16 | CC#C[C@@H](CC(=O)O)c1ccc(OCc2c(F)cc3ccn(Cc4ccccc4)c3c2C)cc1 [Example 49, (S)-3-[4-(1-benzyl-5-fluoro-7-methyl-1H-indol-6-ylmethoxy)-phenyl]-hex-4-ynoic acid] | 50 to 500 nM
17 | CC#C[C@@H](CC(=O)O)c1ccc(OCc2ccc3ccn(Cc4cccc(C(F)(F)F)c4)c3c2C)cc1 [Example 43, (S)-3-{4-[7-methyl-1-(3-trifluoromethyl-benzyl)-1H-indol-6-ylmethoxy]-phenyl}-hex-4-ynoic acid] | 50 to 500 nM
18 | CC(CC(=O)O)c1ccc(OCc2ccc3c(cnn3Cc3ccccc3)c2)cc1 (stereo not shown) [Example 158, 3-[4-(1-benzyl-1H-indazol-5-ylmethoxy)-phenyl]-butyric acid] | 50 nM
19 | CC#C[C@@H](CC(=O)O)c1ccc(OCc2cccc3c(F)nn(C)c23)cc1 [Example 203, (S)-3-[4-(3-fluoro-1-methyl-1H-indazol-7-ylmethoxy)-phenyl]-hex-4-ynoic acid] | 1 to 50 nM
20 | CC#C[C@@H](CC(=O)O)c1ccc(OCc2ccc3c(cnn3Cc3cccnc3)c2)cc1 [Example 147, (S)-3-[4-(1-pyridin-3-ylmethyl-1H-indazol-5-ylmethoxy)-phenyl]-hex-4-ynoic acid] | 1 to 50 nM

Row | Compound | EC50
21 | CC#C[C@@H](CC(=O)O)c1ccc(OCc2ccc3c(cnn3Cc3ccccn3)c2)cc1 [Example 141, (S)-3-[4-(1-pyridine-2-ylmethyl-1H-indazol-5-ylmethoxy)-phenyl]-hex-4-ynoic acid] | 1 to 50 nM
22 | Cc1c(COc2ccc(CCC(=O)O)cc2)ccc2ccn(-c3ccsc3)c12 [Example 16, 3-[4-(7-methyl-1-thiophen-3-yl-1H-indol-6-ylmethoxy)-phenyl]-propanoic acid] | 20 nM
23 | CC#C[C@@H](CC(=O)O)c1ccc(OCc2cccc3c2cnn3CC2CC2)cc1 [Example 199, (S)-3-[4-(1-cyclopropylmethyl-1H-indazol-4-ylmethoxy)-phenyl]-hex-4-ynoic acid] | 17 nM
24 | CC#C[C@@H](CC(=O)O)c1ccc(OCc2ccc3c(CN4CCCC4)nn(CC(C)C)c3c2C)cc1 [Example 217, (S)-3-[4-(1-isobutyl-7-methyl-3-pyrrolidin-1-ylmethyl-1H-indazol-6-ylmethoxy)-phenyl]-hex-4-ynoic acid] | 20 nM
25 | O=C(O)CC1COc2cc(OCc3ccc4cnn(Cc5ccccc5)c4c3)ccc21 (stereo not shown) [Example 105, [6-(1-benzyl-1H-indazol-6-ylmethoxy)-2,3-dihydro-benzofuran-3-yl]-acetic acid] | 400 nM
26 | CC#C[C@@H](CC(=O)O)c1ccc(OCc2ccc3ccn(Cc4ccc(F)cc4F)c3c2C)cc1 [Example 53, (S)-3-{4-[1-(2,4-difluoro-benzyl)-7-methyl-1H-indol-6-ylmethoxy]-phenyl}-hex-4-ynoic acid] | 50 to 500 nM
27 | CC#C[C@@H](CC(=O)O)c1ccc(OCc2ccc3cnn(CC(C)(C)C)c3c2)cc1 [Example 182, (S)-3-{4-[1-(2,2-dimethyl-propyl)-1H-indazol-6-ylmethoxy]-phenyl}-hex-4-ynoic acid] | 1 to 50 nM
28 | CC#C[C@@H](CC(=O)O)c1ccc(OCc2ccc3ccn(Cc4ccc(F)c(F)c4)c3c2C)cc1 [Example 51, (S)-3-{4-[1-(3,4-difluoro-benzyl)-7-methyl-1H-indol-6-ylmethoxy]-phenyl}-hex-4-ynoic acid] | 50 to 500 nM
29 | O=C(O)CC1CCc2cc(OCc3ccc4c(cnn4Cc4ccccc4)c3)ccc21 (stereo not shown) [Example 118, [5-(1-benzyl-1H-indazol-5-ylmethoxy)-indan-1-yl]-acetic acid] | 200 nM
30 | CC#C[C@@H](CC(=O)O)c1ccc(OCc2cccc3nn(Cc4ccc(F)cc4)cc23)cc1 [Example 72, (S)-3-{4-[2-(4-fluoro-benzyl)-2H-indazol-4-ylmethoxy]-phenyl}-hex-4-ynoic acid] | 30 nM
31 | CC#C[C@@H](CC(=O)O)c1ccc(OCc2cccc3c(CCC)nn(C)c23)cc1 [Example 210, (S)-3-[4-(1-methyl-3-propyl-1H-indazol-7-ylmethoxy)-phenyl]-hex-4-ynoic acid] | 8 nM
32 | CC#C[C@@H](CC(=O)O)c1ccc(OCc2ccc3ccn(Cc4cc(F)cc(F)c4)c3c2C)cc1 [Example 52, (S)-3-{4-[1-(3,5-difluoro-benzyl)-7-methyl-1H-indol-6-ylmethoxy]-phenyl}-hex-4-ynoic acid] | 50 to 500 nM
33 | CC#C[C@@H](CC(=O)O)c1ccc(OCc2ccc3cnn(Cc4cccnc4)c3c2)cc1 [Example 79, (S)-3-[4-(1-pyridin-3-ylmethyl-1H-indazol-6-ylmethoxy)-phenyl]-hex-4-ynoic acid] | 1 to 50 nM
34 | CC#C[C@@H](CC(=O)O)c1ccc(OCc2cccc3c2ccn3Cc2ccccc2)cc1 [Example 31, (S)-3-[4-(1-benzyl-1H-indol-4-ylmethoxy)-phenyl]-hex-4-ynoic acid] | 30 nM
35 | CC#C[C@@H](CC(=O)O)c1ccc(OCc2ccc3c(CF)nn(CC(C)C)c3c2C)cc1 [Example 222, (S)-3-[4-(3-fluoromethyl-1-isobutyl-7-methyl-1H-indazol-6-ylmethoxy)-phenyl]-hex-4-ynoic acid] | 5 nM
36 | CC#C[C@@H](CC(=O)O)c1ccc(OCc2ccc3cnn(Cc4cnc(C)cn4)c3c2)cc1 [Example 73, (S)-3-{4-[1-(5-methyl-pyrazin-2-ylmethyl)-1H-indazol-6-ylmethoxy]-phenyl}-hex-4-ynoic acid] | 50 to 500 nM
37 | CC(C)Cn1cc2ccc(COc3ccc([C@H](CC(=O)O)c4ccon4)cc3)cc2n1 [Example 88, (S)-3-[4-(2-isobutyl-2H-indazol-6-ylmethoxy)-phenyl]-3-isoxazol-3-yl-propanoic acid] | 400 nM
38 | CC#C[C@@H](CC(=O)O)c1ccc(OCc2cccc3c(Br)nn(C)c23)cc1 [Example 195, (S)-3-[4-(3-bromo-1-methyl-1H-indazol-7-ylmethoxy)-phenyl]-hex-4-ynoic acid] | 6 nM
39 | Cc1cnc(Cn2ccc3ccc(COc4ccc([C@H](CC(=O)O)c5ccon5)cc4)c(C)c32)cn1 [Example 92, (S)-3-isoxazol-3-yl-3-{4-[7-methyl-1-(5-methyl-pyrazin-2-ylmethyl)-1H-indol-6-ylmethoxy]-phenyl}-propanoic acid] | 1 to 50 nM
40 | CC#C[C@@H](CC(=O)O)c1ccc(OCc2ccc3ccn(Cc4ccccc4)c3n2)cc1 [Example 90, (S)-3-[4-(1-benzyl-1H-pyrrolo[2,3-b]pyridin-6-ylmethoxy)-phenyl]-hex-4-ynoic acid] | 10 nM
